Experimental data from patent US20040063662A1, “Selenophene anti-tumor agents” (priority 1996, published 2004).

Assays:
[1] = test system: SF-539; test: NCI human tumor cell panel: SF-539 (CNS Cancer); format: cell-based; details: SF-539, CNS Cancer
[2] = test system: NCI-H23; test: NCI human tumor cell panel: NCI-H23 (Non-Small Cell Lung Cancer); format: cell-based; details: NCI-H23, Non-Small Cell Lung Cancer
[3] = test system: SK-MEL-5; test: NCI human tumor cell panel: SK-MEL-5 (Melanoma); format: cell-based; details: SK-MEL-5, Melanoma
[4] = test system: OVCAR-5; test: NCI human tumor cell panel: OVCAR-5 (Ovarian Cancer); format: cell-based; details: OVCAR-5, Ovarian Cancer
[5] = test system: MDA-N; test: NCI human tumor cell panel: MDA-N (Breast Cancer); format: cell-based; details: Breast Cancer
[6] = test system: 786-0; test: NCI human tumor cell panel: 786-0 (Renal Cancer); format: cell-based; details: 786-0, Renal Cancer
[7] = test system: RPMI-8226; test: NCI human tumor cell panel: RPMI-8226 (Leukemia); format: cell-based; details: RPMI-8226, Leukemia
[8] = test system: SF-295; test: NCI human tumor cell panel: SF-295 (CNS Cancer); format: cell-based; details: SF-295, CNS Cancer
[9] = test system: HS 578T; test: NCI human tumor cell panel: HS 578T (Breast Cancer); format: cell-based; details: Breast Cancer
[10] = test system: HOP-92; test: NCI human tumor cell panel: HOP-92 (Non-Small Cell Lung Cancer)
[11] = test system: UO-31; test: NCI human tumor cell panel: UO-31 (Renal Cancer); format: cell-based; details: UO-31, Renal Cancer
[12] = test system: OVCAR-4; test: NCI human tumor cell panel: OVCAR-4 (Ovarian Cancer); format: cell-based; details: OVCAR-4, Ovarian Cancer
[13] = test system: UACC-257; test: NCI human tumor cell panel: UACC-257 (Melanoma); format: cell-based; details: UACC-257, Melanoma
[14] = test system: IGROV1; test: NCI human tumor cell panel: IGROV1 (Ovarian Cancer); format: cell-based; details: IGROV-1, IGROV1, Ovarian Cancer
[15] = test system: HOP-62; test: NCI human tumor cell panel: HOP-62 (Non-Small Cell Lung Cancer); format: cell-based; details: HOP-62, Non-Small Cell Lung Cancer
[16] = test system: BT-549; test: NCI human tumor cell panel: BT-549 (Breast Cancer); format: cell-based; details: BT-549, Breast Cancer
[17] = test system: CCRF-CEM; test: NCI human tumor cell panel: CCRF-CEM (Leukemia); format: cell-based; details: Leukemia
[18] = test system: OVCAR-8; test: NCI human tumor cell panel: OVCAR-8 (Ovarian Cancer); format: cell-based; details: OVCAR-8, Ovarian Cancer
[19] = test system: SK-MEL-2; test: NCI human tumor cell panel: SK-MEL-2 (Melanoma); format: cell-based; details: SK-MEL-2, Melanoma
[20] = test system: M14; test: NCI human tumor cell panel: M14 (Melanoma); format: cell-based; details: M14, Melanoma
[21] = test system: MCF7; test: NCI human tumor cell panel: MCF7 (Breast Cancer); format: cell-based; details: MCF7, Breast Cancer
[22] = test system: MDA-MB-435; test: NCI human tumor cell panel: MDA-MB-435 (Breast Cancer); format: cell-based; details: MDA-MB-435, Breast Cancer
[23] = test system: NCI-H460; test: NCI human tumor cell panel: NCI-H460 (Non-Small Cell Lung Cancer); format: cell-based; details: NCI-H460, Non-Small Cell Lung Cancer
[24] = test system: SN12C; test: NCI human tumor cell panel: SN12C (Renal Cancer); format: cell-based; details: Renal Cancer
[25] = test system: DU-145; test: NCI human tumor cell panel: DU-145 (Prostate Cancer); format: cell-based; details: DU-145, Prostate Cancer
[26] = test system: A498; test: NCI human tumor cell panel: A498 (Renal Cancer); format: cell-based; details: A498, Renal Cancer
[27] = test system: SNB-75; test: NCI human tumor cell panel: SNB-75 (CNS Cancer); format: cell-based; details: SNB-75, CNS Cancer
[28] = test system: UACC-62; test: NCI human tumor cell panel: UACC-62 (Melanoma); format: cell-based; details: UACC-62, Melanoma
[29] = test system: LOX IMVI; test: NCI human tumor cell panel: LOX IMVI (Melanoma); format: cell-based; details: Melanoma
[30] = read-out: Log10 GI50 (converted)
[31] = read-out: Log10 TGI (converted)

O=Cc1ccc(-c2ccc(-c3ccc[se]3)[se]2)[se]1 [NSC 675244]
GI50 [1, 30]: 17 µM | IC (TGI) [1, 31]: 33.1 µM | GI50 [2, 30]: 13.5 µM | IC (TGI) [2, 31]: 30.9 µM | GI50 [3, 30]: 3.39 µM | IC (TGI) [3, 31]: 13.8 µM | GI50 [4, 30]: 0.55 µM | IC (TGI) [4, 31]: 13.2 µM | GI50 [5, 30]: 4.57 µM | IC (TGI) [5, 31]: 19.5 µM | GI50 [6, 30]: 6.03 µM | IC (TGI) [6, 31]: 18.6 µM | GI50 [7, 30]: 2.95 µM | IC (TGI) ([7]; read-out: Log10 TGI): > 100 µM | GI50 [8, 30]: 15.1 µM | IC (TGI) [8, 31]: 28.2 µM | GI50 [9, 30]: 7.24 µM | IC (TGI) [9, 31]: 21.9 µM | GI50 ([10]; HOP-92, read-out: Log10 GI50 (converted)): 11 µM | IC (TGI) ([10]; HOP-92, read-out: Log10 TGI): 25.7 µM | GI50 [11, 30]: 15.5 µM | IC (TGI) [11, 31]: 28.8 µM | GI50 [12, 30]: 1.58 µM | IC (TGI) [12, 31]: 14.8 µM | GI50 [13, 30]: 0.309 µM | IC (TGI) [13, 31]: 0.851 µM | GI50 [14, 30]: 3.31 µM | IC (TGI) [14, 31]: 15.5 µM | GI50 [15, 30]: 12 µM | IC (TGI) [15, 31]: 29.5 µM | GI50 [16, 30]: 12.3 µM | IC (TGI) [16, 31]: 30.9 µM | GI50 [17, 30]: 2.14 µM | IC (TGI) [17, 31]: 7.08 µM | GI50 [18, 30]: 9.12 µM | IC (TGI) [18, 31]: 30.2 µM | GI50 [19, 30]: 16.6 µM | IC (TGI) [19, 31]: 45.7 µM | GI50 [20, 30]: 11.5 µM | IC (TGI) [20, 31]: 28.8 µM | GI50 [21, 30]: 0.479 µM | IC (TGI) [21, 31]: 11.5 µM | GI50 [22, 30]: 10.2 µM | IC (TGI) [22, 31]: 33.1 µM | GI50 [23, 30]: 2.24 µM | IC (TGI) [23, 31]: 16.2 µM | GI50 [24, 30]: 10 µM | IC (TGI) [24, 31]: 22.4 µM | GI50 [25, 30]: 12.6 µM | IC (TGI) [25, 31]: 25.1 µM | GI50 [26, 30]: 1.41 µM | IC (TGI) [26, 31]: 2.95 µM | GI50 [27, 30]: 2 µM | IC (TGI) [27, 31]: 6.46 µM | GI50 [28, 30]: 0.0708 µM | IC (TGI) [28, 31]: 10.7 µM | GI50 [29, 30]: 5.62 µM | IC (TGI) [29, 31]: 20.9 µM
